# Assay: incubation effect on Rab7 inhibitor curves, late-stage follow-up, mechanism study, biochemical, Rab7 wildtype, bead flow cytometry, two incubation protocols (AID 720699)
# Conditions: Rab7 beads, Bodipy-FL-GTP binding
EC50 (protocol A),EC50 (protocol B),Compound
219 nM,172 nM,CC1(C)Cc2c(sc(NC(=S)NC(=O)c3ccc(N=[N+]=[N-])cc3)c2C(=O)O)CO1
1260 nM,1220 nM,CC1(C)Cc2c(sc(NC(=S)NC(=O)c3cccc(N=[N+]=[N-])c3)c2C(=O)O)CO1

# From PubChem BioAssay AID720699 (NMMLSC, 2013)
